Source: patent US12433913B2, “Treatment of acute respiratory disease syndrome (ARDS) with polysulfated polysaccharides” (Paradigm Biopharmaceuticals Ltd., priority 2020, dated 2025)
“And” between values parts separate entries of the source, which are not always exact repeats. Equal entries are not always repeated. Where two headings read alike, the source gives them in different places.

How the values were obtained:
[1] = system: SARS-CoV-2; type: cell-based, Vero (Africa Green Monkey kidney epithelium); details: for PFU/well: replicates
[2] = 2 mg/kg twice weekly subcutaneously; cited from earlier work
[3] = system: allergen induced asthma; details: intra-tracheal PPS; cited from earlier work
[4] = system: SARS-CoV-2; type: cell-based, Vero (Africa Green Monkey kidney epithelium); details: for PFU/well: replicates; remark: listed apart in the source
[5] = target: T1, human leukocyte elastase (human neutrophil elastase) (Homo sapiens, UniProt P08246); details: cited from earlier work
T1 sequence (P08246 30-267): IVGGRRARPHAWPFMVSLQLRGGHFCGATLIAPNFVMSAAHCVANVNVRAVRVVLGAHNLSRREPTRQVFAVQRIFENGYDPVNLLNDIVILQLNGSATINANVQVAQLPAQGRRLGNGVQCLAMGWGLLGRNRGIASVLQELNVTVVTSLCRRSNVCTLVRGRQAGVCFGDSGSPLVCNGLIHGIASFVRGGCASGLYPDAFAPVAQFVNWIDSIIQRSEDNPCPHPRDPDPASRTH

[6] = system: SARS-CoV-2; type: cell-based, Vero (Africa Green Monkey kidney epithelium); details: for PFU/well: replicates; remark: listed apart in the source
[7] = system: IL-8, MCP-1 and MIP-1a; details: cited from earlier work
[8] = system: alphavirus; details: within 3 to 10 days post PPS treatment in infected animals; cited from earlier work
[9] = system: H1N1 PR-8 influenza strain; assay: Influenza virus-induced ARDS mouse model (Study 1); type: in vivo, C57BL/6J mice

pentosan polysulfate [PPS]
PFU/well ([1]; PPS 12.5 μg/ml on Vero cells 30 min prior to infection with 50 PFU): 35 PFU/well and 33 PFU/well and 34 PFU/well and 40 PFU/well and 41 PFU/well and 39 PFU/well and 36 PFU/well and 37 PFU/well
PFU/well ([1]; PPS 25 μg/ml on Vero cells 30 min prior to infection with 50 PFU): 29 PFU/well and 31 PFU/well and 27 PFU/well and 25 PFU/well
PFU/well ([1]; PPS 200 μg/ml on Vero cells 30 min prior to infection with 50 PFU): 18 PFU/well (2×) and 16 PFU/well (2×) and 20 PFU/well and 21 PFU/well and 17 PFU/well and 19 PFU/well
Maximum inhibition of plaque formation ([1]; top dose of 200 μg/ml, cells treated 30 min prior to infection): 60%
Effect on blood coagulation [2]: no lasting effect on blood coagulation
Airway hyper-reactivity [3]: inhibited
Lung compliance [3]: increased
Total number of infiltrating leukocytes and neutrophils in the bronchoalveolar fluid [3]: significantly reduced
Total protein content in the bronchoalveolar fluid [3]: significantly reduced
PFU/well ([4]; PPS 12.5 μg/ml incubated with virus inoculum 30 min prior to addition to Vero cells): 31 PFU/well and 33 PFU/well and 39 PFU/well and 34 PFU/well and 42 PFU/well and 38 PFU/well and 40 PFU/well and 37 PFU/well
PFU/well ([4]; PPS 25 μg/ml incubated with virus inoculum 30 min prior to addition to Vero cells): 25 PFU/well and 28 PFU/well (2×) and 31 PFU/well (2×) and 34 PFU/well and 33 PFU/well and 35 PFU/well
PFU/well ([4]; PPS 50 μg/ml incubated with virus inoculum 30 min prior to addition to Vero cells): 24 PFU/well and 21 PFU/well and 28 PFU/well and 31 PFU/well and 32 PFU/well and 30 PFU/well and 29 PFU/well and 26 PFU/well
PFU/well ([4]; PPS 100 μg/ml incubated with virus inoculum 30 min prior to addition to Vero cells): 19 PFU/well and 17 PFU/well and 23 PFU/well and 26 PFU/well and 22 PFU/well (2×) and 25 PFU/well and 27 PFU/well
PFU/well ([4]; PPS 200 μg/ml incubated with virus inoculum 30 min prior to addition to Vero cells): 16 PFU/well and 12 PFU/well and 20 PFU/well (2×) and 22 PFU/well and 21 PFU/well and 23 PFU/well and 24 PFU/well
Maximum inhibition of plaque formation ([4]; top dose of 200 μg/ml, virus treated 30 min prior to infection): 56%
Activity on human leukocyte elastase [5]: antagonist
PFU/well ([6]; PPS 12.5 μg/ml incubated with both virus and cells 30 min prior to infection): 18 PFU/well and 19 PFU/well and 17 PFU/well and 22 PFU/well and 20 PFU/well (2×) and 25 PFU/well and 26 PFU/well
PFU/well ([6]; PPS 25 μg/ml incubated with both virus and cells 30 min prior to infection): 18 PFU/well and 15 PFU/well (2×) and 20 PFU/well and 21 PFU/well and 19 PFU/well and 22 PFU/well and 17 PFU/well
PFU/well ([6]; PPS 50 μg/ml incubated with both virus and cells 30 min prior to infection): 12 PFU/well and 14 PFU/well (2×) and 15 PFU/well and 13 PFU/well and 18 PFU/well (2×) and 16 PFU/well
PFU/well ([6]; PPS 100 μg/ml incubated with both virus and cells 30 min prior to infection): 8 PFU/well and 12 PFU/well and 11 PFU/well and 7 PFU/well and 13 PFU/well and 10 PFU/well and 16 PFU/well and 9 PFU/well
PFU/well ([6]; PPS 200 μg/ml incubated with both virus and cells 30 min prior to infection): 6 PFU/well and 12 PFU/well and 10 PFU/well (2×) and 8 PFU/well and 11 PFU/well and 14 PFU/well and 13 PFU/well
Maximum inhibition of plaque formation ([6]; top dose of 200 μg/ml, virus and cells treated 30 min prior to infection): 77%
Cell movement induced by IL-8, MCP-1 and MIP-1a [7]: inhibits cell movement
Cytokine response (IL-1a; IL-2, IL-6, MIP1a and CCL2) [8]: reduction
Number of nuclei/mm^2 in lung sections ([9]; 3 mg/kg daily ip, Day 8, compared to vehicle treated animals): statistically significant reduction
Number of nuclei/mm^2 in lung sections ([9]; 3 mg/kg daily sc, Day 8, compared to vehicle treated animals): statistically significant reduction
Level of nuclei/mm^2 in infected PPS treated animals relative to uninfected animals ([9]; 3 mg/kg daily, Day 8): comparable to uninfected animals
Weight loss ([9]; 3 mg/kg daily, ip or sc, compared to infected animals treated with vehicle): reduced weight loss
Cellular infiltration in representative lung sections ([9]; 3 mg/kg ip or sc, Day 8, compared to vehicle treated animals): reduced cellular infiltration
Fibrotic response (collagen, Masson's Trichrome stain) ([9]; 3 mg/kg sc from Day 0 or Day 2 post-infection, Day 21, compared to vehicle): fibrotic response was reduced
Oxygen saturation levels ([9]; 3 mg/kg sc from Day 0 or Day 2 post-infection, measured Day 6 and Day 8, compared to vehicle treated infected animals): improved oxygen saturation levels
